# According to publication doi:10.1101/2021.07.05.449867v2 (biorxiv, 2021):
# Tested on: ZRK
# Test: NAD
# Format: biochemical, Zygosaccharomyces rouxii
# Details: 2000 uM NADPH/NADH; enzyme 1 ug/ml; optimal buffer
row,Km [µM],SMILES
1,186,"CC(=O)c1cc(C(F)(F)F)cc(C(F)(F)F)c1 [Aprepitant K-INT, 1-(3,5-bis-trifluoromethyl-phenyl)-ethanone]"
2,346,"COC(=O)CC(=O)Cc1cc(F)c(F)cc1F [Sitagliptin K-INT, 3-oxo-4-(2,4,5-trifluoro-phenyl)-butyric acid methyl ester]"
